The source of these data is patent publication US9920010B2, “CXCR7 receptor modulators” (IDORSIA PHARMACEUTICALS LTD, priority 2013, dated 2018).

The assay has as its target T1, CXCR7 (Homo sapiens, UniProt P25106).
T1 construct: host or cells: CHO-K1 (PathHunter CHO-K1 CXCR7 b-arrestin cell line, stably transfected)
Description: PathHunter CHO-K1 CXCR7 b-arrestin recruitment assay (CXCR7 agonistic activity). In kind it is cell-based. To be noted: PathHunter CHO-K1 CXCR7 b-arrestin cell line. A digest of the protocol:
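Stable CHO-K1 line with C-terminally ProLink-tagged CXCR7 and β-arrestin 2–EA fusion; β-arrestin recruitment restores β-gal activity, read by chemiluminescence after 1 h RT detection. Cells seeded 24 h, starved in OPTIMEM 3–4 h, exposed to compounds 90 min at 37 °C in HBSS/HEPES/BSA. Geometric-mean EC50 from repeated measurements.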

T1 sequence (P25106 whole entry): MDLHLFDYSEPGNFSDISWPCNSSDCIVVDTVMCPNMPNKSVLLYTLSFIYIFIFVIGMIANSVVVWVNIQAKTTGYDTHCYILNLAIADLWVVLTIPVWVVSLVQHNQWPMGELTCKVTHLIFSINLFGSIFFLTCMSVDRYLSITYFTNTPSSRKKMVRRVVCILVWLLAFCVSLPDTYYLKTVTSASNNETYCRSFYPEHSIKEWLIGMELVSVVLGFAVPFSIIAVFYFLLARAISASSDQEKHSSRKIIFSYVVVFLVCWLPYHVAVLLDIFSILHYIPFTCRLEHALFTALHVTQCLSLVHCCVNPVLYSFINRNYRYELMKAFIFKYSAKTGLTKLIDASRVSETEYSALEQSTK
T1 sequence (P32121 whole entry partner): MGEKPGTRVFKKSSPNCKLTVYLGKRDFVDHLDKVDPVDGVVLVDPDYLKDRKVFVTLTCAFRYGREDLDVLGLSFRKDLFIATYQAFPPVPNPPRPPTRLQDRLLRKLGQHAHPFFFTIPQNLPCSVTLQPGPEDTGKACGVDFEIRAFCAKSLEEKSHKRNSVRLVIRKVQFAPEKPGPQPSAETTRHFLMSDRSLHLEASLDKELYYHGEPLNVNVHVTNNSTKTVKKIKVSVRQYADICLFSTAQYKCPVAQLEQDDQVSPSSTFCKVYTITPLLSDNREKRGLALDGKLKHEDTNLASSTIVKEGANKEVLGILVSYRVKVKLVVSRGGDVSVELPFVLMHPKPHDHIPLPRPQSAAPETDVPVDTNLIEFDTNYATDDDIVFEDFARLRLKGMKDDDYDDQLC

In the case of `CN(C)CCN(Cc1ccccc1F)C(=O)CNc1cccc2c1CCN(CC1CC1)C2` [Example 38, 2-(2-Cyclopropylmethyl-1,2,3,4-tetrahydro-isoquinolin-5-ylamino)-N-(2-dimethylamino-ethyl)-N-(2-fluoro-benzyl)-acetamide], the EC50 – broadly, the concentration at which the effect is half-maximal – was 3 nM.

For `CN(C)CCN(Cc1ccccc1)C(=O)CNc1cccc2c1CCN(C)C2` [compound 106], the concentration giving a half-maximal response (EC50) was determined as 100 nM.

`CN(C)CCN(Cc1ccccc1)C(=O)CNc1cccc2c1CN(Cc1ccccc1)CC2` [compound 193, N-Benzyl-2-(2-benzyl-1,2,3,4-tetrahydro-isoquinolin-8-ylamino)-N-(2-dimethylamino-ethyl)-acetamide] gave an EC50 of 48 nM.

For the compound `CC(C)(O)CN(Cc1ncccc1Cl)C(=O)CNc1cccc2c1CCN(CC1CC1)C2` [Example 251, N-(3-Chloro-pyridin-2-ylmethyl)-2-(2-cyclopropylmethyl-1,2,3,4-tetrahydro-isoquinolin-5-ylamino)-N-(2-hydroxy-2-methyl-propyl)-acetamide], the EC50 is 24 nM.

As for `CCC(=O)N1CCc2c(cccc2NCC(=O)N(CCN(C)C)Cc2ccccc2C(F)(F)F)C1` [Example 35, N-(2-Dimethylamino-ethyl)-2-(2-propionyl-1,2,3,4-tetrahydro-isoquinolin-5-ylamino)-N-(2-trifluoromethyl-benzyl)-acetamide], the response was half-maximal at 4 nM (EC50).

As for `CCN1CCc2cccc(NCC(=O)N(Cc3ccccc3)C3CCNC3)c2C1` (racemic) [compound 378], the half-maximal effective concentration (EC50) was determined as 321 nM.

On to `CCS(=O)(=O)N1CCc2c(cccc2NCC(=O)N(CCN(C)C)Cc2ccccc2C(F)(F)F)C1` [Example 103, N-(2-Dimethylamino-ethyl)-2-(2-ethanesulfonyl-1,2,3,4-tetrahydro-isoquinolin-5-ylamino)-N-(2-trifluoromethyl-benzyl)-acetamide], for which the concentration for a half-maximal effect (EC50) amounted to 97 nM.

Turning to `CC(C)N1CCc2cccc(NCC(=O)N(CCN(C)C)Cc3ccccc3)c2C1` [compound 186], the response was half-maximal at 91 nM (EC50).

For `CN(C)CCN(Cc1ccccc1C(F)(F)F)C(=O)CNc1cccc2c1C(C)(C)CN(C(=O)OC(C)(C)C)C2` [Example 90, 5-({[(2-Dimethylamino-ethyl)-(2-trifluoromethyl-benzyl)-carbamoyl]-methyl}-amino)-4,4-dimethyl-3,4-dihydro-1H-isoquinoline-2-carboxylic acid tert-butyl ester], the response was half-maximal at 32 nM (EC50).

Turning to `C=CCOC(=O)N1CCc2c(cccc2NCC(=O)N(CCNC)Cc2ccccc2C(F)(F)F)C1` [compound 397, 5-({[(2-Methylamino-ethyl)-(2-trifluoromethyl-benzyl)-carbamoyl]-methyl}-amino)-3,4-dihydro-1H-isoquinoline-2-carboxylic acid allyl ester], the EC50 was 35 nM.

Compound `CN(C)CCN(Cc1ncccc1C(F)(F)F)C(=O)Cc1cccc2c1CCN(CC1CC1)C2` [Example 5, 2-(2-Cyclopropylmethyl-1,2,3,4-tetrahydro-isoquinolin-5-yl)-N-(2-dimethylamino-ethyl)-N-(3-trifluoromethyl-pyridin-2-ylmethyl)-acetamide] yielded an EC50 of 187 nM.

`CC(C)C(=O)N1CCc2cccc(NCC(=O)N(CCN(C)C)Cc3ccccc3)c2C1` [compound 191] yielded a concentration for a half-maximal effect (EC50) of 59 nM.

Regarding `CN(C)CCN(Cc1ccccc1)C(=O)COc1cccc2c1CN(C(=O)c1ccccc1)CC2` [Example 207, 2-(2-Benzoyl-1,2,3,4-tetrahydro-isoquinolin-8-yloxy)-N-benzyl-N-(2-dimethylamino-ethyl)-acetamide], a half-maximal effect (EC50) was put at 5 nM.

For the compound `CCN1CCc2cccc(NCC(=O)N(CCN(C)C)Cc3ncccc3C(F)(F)F)c2C1` [compound 531, N-(2-Dimethylamino-ethyl)-2-(2-ethyl-1,2,3,4-tetrahydro-isoquinolin-8-ylamino)-N-(3-trifluoromethyl-pyridin-2-ylmethyl)-acetamide], the 50% effective concentration (EC50) stood at 6 nM.

On to `CCC(=O)N1CCc2c(cccc2OCC(=O)N(CCN(C)C)Cc2ccccc2)C1` [compound 169, N-Benzyl-N-(2-dimethylamino-ethyl)-2-(2-propionyl-1,2,3,4-tetrahydro-isoquinolin-5-yloxy)-acetamide], for which the 50% effective concentration (EC50) came out at 42 nM.

Regarding `CCN1CCc2cccc(/C=C/C(=O)N(CCN(C)C)Cc3ccccc3C(F)(F)F)c2C1` [compound 550, (E)-N-(2-Dimethylamino-ethyl)-3-(2-ethyl-1,2,3,4-tetrahydro-isoquinolin-8-yl)-N-(2-trifluoromethyl-benzyl)-acrylamide], it took 2 nM to reach a half-maximal effect (EC50).

Take `CN1CCC(N(Cc2ccccc2C(F)(F)F)C(=O)CCc2cccc3c2CCN(C(=O)OC(C)(C)C)C3)CC1` [Example 100, 5-{2-[(1-Methyl-piperidin-4-yl)-(2-trifluoromethyl-benzyl)-carbamoyl]-ethyl}-3,4-dihydro-1H-isoquinoline-2-carboxylic acid tert-butyl ester]: the midpoint of the response, the EC50, lay at 376 nM.

Consider `CN(C)CCN(Cc1ccccc1C(F)(F)F)C(=O)CNc1cccc2c1CN(C(=O)c1ccccc1)CC2` [compound 552, 2-(2-Benzoyl-1,2,3,4-tetrahydro-isoquinolin-8-ylamino)-N-(2-dimethylamino-ethyl)-N-(2-trifluoromethyl-benzyl)-acetamide], for which the EC50 is 4 nM.

Turning to `CNCCN(Cc1ccccc1C(F)(F)F)C(=O)CNc1cccc2c1CCN(C(=O)OC(C)C)C2` [compound 399], the 50% effective concentration (EC50) worked out at 64 nM.

As for `CN(C)CCN(CCc1ccccc1)C(=O)Cc1cccc2c1CCN(CC1CC1)C2` [Example 2, 2-(2-Cyclopropylmethyl-1,2,3,4-tetrahydro-isoquinolin-5-yl)-N-(2-dimethylamino-ethyl)-N-phenethyl-acetamide], the EC50 is 144 nM.

Consider `O=C(CNc1cccc2c1CCN(CC1CC1)C2)N(CCN1CCC(F)(F)CC1)Cc1ncccc1Cl` [Example 249, N-(3-Chloro-pyridin-2-ylmethyl)-2-(2-cyclopropylmethyl-1,2,3,4-tetrahydro-isoquinolin-5-ylamino)-N-[2-(4,4-difluoro-piperidin-1-yl)-ethyl]-acetamide], for which the half-maximal effective concentration (EC50) stood at 12 nM.

In the case of `CCN(CC)CCN(Cc1ccccc1C(F)(F)F)C(=O)CNc1cccc2c1CCN(CC1CC1)C2` [Example 60, 2-(2-Cyclopropylmethyl-1,2,3,4-tetrahydro-isoquinolin-5-ylamino)-N-(2-diethylamino-ethyl)-N-(2-trifluoromethyl-benzyl)-acetamide], the EC50 is 1 nM.

With `CC(C)CN1CCc2cccc(NCC(=O)N(CCN(C)C)Cc3ccccc3)c2C1` [compound 189, N-Benzyl-N-(2-dimethylamino-ethyl)-2-(2-isobutyl-1,2,3,4-tetrahydro-isoquinolin-8-ylamino)-acetamide], the EC50 is 37 nM.

Take `CCOC(=O)N1CCc2c(cccc2NCC(=O)N(CCNC)Cc2ncccc2C(F)(F)F)C1` [compound 420, 5-({[(2-Methylamino-ethyl)-(3-trifluoromethyl-pyridin-2-ylmethyl)-carbamoyl]-methyl}-amino)-3,4-dihydro-1H-isoquinoline-2-carboxylic acid ethyl ester]: a half-maximal effect (EC50) was put at 21 nM.

Take `CN(C)CCN(Cc1ccccn1)C(=O)CNc1cccc2c1CCN(CC1CC1)C2` [Example 257, 2-(2-Cyclopropylmethyl-1,2,3,4-tetrahydro-isoquinolin-5-ylamino)-N-(2-dimethylamino-ethyl)-N-pyridin-2-ylmethyl-acetamide]: a half-maximal effect (EC50) was put at 29 nM.
